Reference: PubChem BioAssay (NCI)
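Each compound was tested at five concentrations against cells in 96-well plates for 48 hours. TGI marks complete inhibition of growth.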

Columns and labels:
Assay in all cases: NCI anticancer screen, dose series, 48 h
BT-549 breast = test system: BT-549 breast
SNB-75 CNS = test system: SNB-75 CNS
T-47D breast = test system: T-47D breast
COLO 205 colon = test system: COLO 205 colon
NCI/ADR-RES ovarian = test system: NCI/ADR-RES ovarian
786-0 renal = test system: 786-0 renal
DU-145 prostate = test system: DU-145 prostate
U251 CNS = test system: U251 CNS
HCT-116 colon = test system: HCT-116 colon
MDA-MB-435 = test system: MDA-MB-435
OVCAR-8 ovarian = test system: OVCAR-8 ovarian
RPMI-8226 leukemia = test system: RPMI-8226 leukemia
TK-10 renal = test system: TK-10 renal
MOLT-4 leukemia = test system: MOLT-4 leukemia
OVCAR-4 ovarian = test system: OVCAR-4 ovarian
HS 578T breast = test system: HS 578T breast
SF-539 CNS = test system: SF-539 CNS
PC-3 prostate = test system: PC-3 prostate
RXF 393 renal = test system: RXF 393 renal
MALME-3M melanoma = test system: MALME-3M melanoma
HT29 colon = test system: HT29 colon
SF-295 CNS = test system: SF-295 CNS
HCC-2998 colon = test system: HCC-2998 colon
NCI-H460 lung = test system: NCI-H460 lung
HOP-62 NSCLC = test system: HOP-62 NSCLC
NCI-H23 lung = test system: NCI-H23 lung
UO-31 renal = test system: UO-31 renal
NCI-H522 lung = test system: NCI-H522 lung
HL-60(TB) leukemia = test system: HL-60(TB) leukemia
CCRF-CEM leukemia = test system: CCRF-CEM leukemia
CAKI-1 renal = test system: CAKI-1 renal
M14 melanoma = test system: M14 melanoma
SK-OV-3 ovarian = test system: SK-OV-3 ovarian
SN12C renal = test system: SN12C renal
KM12 colon = test system: KM12 colon
LOX IMVI melanoma = test system: LOX IMVI melanoma
OVCAR-5 ovarian = test system: OVCAR-5 ovarian
MCF7 breast = test system: MCF7 breast
A498 renal = test system: A498 renal
SK-MEL-5 melanoma = test system: SK-MEL-5 melanoma
K-562 leukemia = test system: K-562 leukemia
EKVX NSCLC = test system: EKVX NSCLC
SK-MEL-28 melanoma = test system: SK-MEL-28 melanoma
HCT-15 colon = test system: HCT-15 colon
ACHN renal = test system: ACHN renal
OVCAR-3 ovarian = test system: OVCAR-3 ovarian
HOP-92 NSCLC = test system: HOP-92 NSCLC
UACC-257 melanoma = test system: UACC-257 melanoma
SK-MEL-2 melanoma = test system: SK-MEL-2 melanoma
SW-620 colon = test system: SW-620 colon
SF-268 CNS = test system: SF-268 CNS
A549 NSCLC = test system: A549 NSCLC

Structure (SMILES): COc1cnc2oc3ccc(O)cc3c2c1-c1ccccc1
- TGI (BT-549 breast): > 100 µM
- TGI (SNB-75 CNS): > 100 µM
- TGI (T-47D breast): > 100 µM
- TGI (COLO 205 colon): > 100 µM
- TGI (NCI/ADR-RES ovarian): > 100 µM
- TGI (786-0 renal): > 100 µM
- TGI (DU-145 prostate): > 100 µM
- TGI (U251 CNS): > 100 µM
- TGI (HCT-116 colon): 45 µM
- TGI (MDA-MB-435): > 100 µM
- TGI (OVCAR-8 ovarian): > 100 µM
- TGI (RPMI-8226 leukemia): > 100 µM
- TGI (TK-10 renal): > 100 µM
- TGI (MOLT-4 leukemia): > 100 µM
- TGI (OVCAR-4 ovarian): > 100 µM
- TGI (HS 578T breast): > 100 µM
- TGI (SF-539 CNS): > 100 µM
- TGI (PC-3 prostate): > 100 µM
- TGI (RXF 393 renal): > 100 µM
- TGI (MALME-3M melanoma): > 100 µM
- TGI (HT29 colon): > 100 µM
- TGI (SF-295 CNS): > 100 µM
- TGI (HCC-2998 colon): 92.1 µM
- TGI (NCI-H460 lung): > 100 µM
- TGI (HOP-62 NSCLC): > 100 µM
- TGI (NCI-H23 lung): > 100 µM
- TGI (UO-31 renal): > 100 µM
- TGI (NCI-H522 lung): > 100 µM
- TGI (HL-60(TB) leukemia): > 100 µM
- TGI (CCRF-CEM leukemia): > 100 µM
- TGI (CAKI-1 renal): > 100 µM
- TGI (M14 melanoma): 39.8 µM
- TGI (SK-OV-3 ovarian): > 100 µM
- TGI (SN12C renal): > 100 µM
- TGI (KM12 colon): > 100 µM
- TGI (LOX IMVI melanoma): > 100 µM
- TGI (OVCAR-5 ovarian): 68.2 µM
- TGI (MCF7 breast): > 100 µM
- TGI (A498 renal): > 100 µM
- TGI (SK-MEL-5 melanoma): > 100 µM
- TGI (K-562 leukemia): > 100 µM
- TGI (EKVX NSCLC): > 100 µM
- TGI (SK-MEL-28 melanoma): > 100 µM
- TGI (HCT-15 colon): > 100 µM
- TGI (ACHN renal): > 100 µM
- TGI (OVCAR-3 ovarian): > 100 µM
- TGI (HOP-92 NSCLC): > 100 µM
- TGI (UACC-257 melanoma): > 100 µM
- TGI (SK-MEL-2 melanoma): > 100 µM
- TGI (SW-620 colon): > 100 µM
- TGI (SF-268 CNS): > 100 µM
- TGI (A549 NSCLC): > 100 µM
